Measurements: patent US12220421B2, “Inhibitors of C. difficile spore germination” (THE BOARDS OF REGENTS OF THE NEVADA SYSTEM OF HIGHER …, priority 2021, dated 2025)
“Also recorded” adds a separate entry of the source. Read-outs that look alike come from different tables or passages of the source.

What was measured:
[1] = Incubation with feces / murine microbiota (degradation); assay type: in vitro ADME; conditions: 3 days incubation with feces
[2] = test system: C. difficile R20291 spores; test: C. difficile spore germination assay (optical density, OD580); conditions: Clostridioides difficile, R20291SPORES, 6 mM taurocholate, 12 mM glycine
[3] = test system: C. difficile R20291 spores; conditions: literature, cited from earlier work
C. difficile 630 strain [4] = conditions: literature, cited from earlier work; for IC50: read-out: IC50 against 630 strain
[5] = biological target: C. difficile spore germination; conditions: literature values; read-out: Ki, inhibition of germination; cited from earlier work
C. difficile 630 strain [6] = test: Spore germination inhibition against C. difficile 630 strain (literature); assay type: cell-based

C[C@H](CCc1ncc2ccccc2n1)[C@H]1CC[C@H]2[C@@H]3[C@H](O)C[C@@H]4C[C@H](O)CC[C@]4(C)[C@H]3C[C@H](O)[C@]12C [Compound 29]
Degradation on incubation with feces [1]: not degraded
IC50 ([2]; Table 3): 22 ± 3 µM
activity at 125 µM ([2]; read-out: % Germination, Table 3, compound 125 μM, ± standard deviation): 17 ± 3%

C[C@H](CCC(=O)Nc1ccccc1)[C@H]1CC[C@H]2[C@@H]3CCC4CCCC[C@]4(C)[C@H]3CC[C@]12C (some centres unmarked) [N-(Phenyl)-cholan-24-amide]
IC50 ([3]; R20291 strain, read-out: IC50 against R20291 strain): 1.8 µM
IC50 (C. difficile 630 strain [4]): 270 µM

C[C@H](CCC(=O)Nc1cccc(S(=O)(=O)O)c1)[C@H]1CC[C@H]2[C@@H]3[C@H](O)C[C@@H]4C[C@H](O)CC[C@]4(C)[C@H]3C[C@H](O)[C@]12C [CamSA]
Activity against R20291 strain ([3]; hypervirulent R20291 strain): no inhibitory or prophylactic activity; also recorded: inactive
Ki [5]: 50 µM
IC50 (C. difficile 630 strain [4]): 58 µM
Activity against 630 strain (C. difficile 630 strain [4]): active

C[C@H](CCC(=O)Nc1cccc(S(=O)(=O)O)c1)[C@H]1CC[C@H]2[C@@H]3[C@H](O)C[C@@H]4C[C@H](O)CC[C@]4(C)[C@H]3CC[C@]12C [chenodeoxycholic analog of CamSA]
Potency relative to the cholate derivative CamSA (less potent) (C. difficile 630 strain [6]): approximately 100 fold
IC50 (C. difficile 630 strain [4]): 6500 µM
